A short description of this data set: Zeta potential. It counts as physicochemical. The protocol:
In certain embodiments, the ZLC, e.g., any of Complex 2, et seq. can have a zeta potential on the order of +10 to +60, e.g., between +20 and +50. Zeta potential is measured as described below. The zeta potential indicates the degree of repulsion between adjacent, similarly charged particles in a dispersion. For molecules and particles that are small enough to be influenced by […], a high zeta potential will tend to confer stability, i.e., the particles will tend to repel one another, and the solution or dispersion will resist aggregation. When the zeta potential is low, attraction exceeds repulsion and the dispersion will break and flocculate. Here, it is desirable to have a zeta potential that is high enough in formulation to deter aggregation, but low enough to allow flocculation and blockage of the pores. […] Having a similar zeta potential, the ZLC, e.g., any of Complex 2, et seq. will behave similarly and flocculate when introduced into a pore and becomes hydrated. In contrast, zinc chloride has a zeta potential of about 0, which is much lower than current antiperspirant salts and the current disclosure.

The text below walks through data of patent US20170121351A1, “Synthesis of Zinc-Lysine Complex From Zinc Chloride” (Colgate-Palmolive Company, priority 2014, published 2017).

As for `[Cl-].[Cl-].[Zn+2]` [zinc chloride], the zeta potential result is recorded as “about 0”.
